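1) Cells in 96-well plates. 2) Compound, 48 h, 5 concentrations. 3) Linear interpolation between surrounding doses. 4) Unreached endpoint = highest concentration. TGI marks complete inhibition of growth.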
Assays:
Test in all cases: DTP human tumour cell line panel, 48 h
786-0 renal = system: 786-0 renal
A498 renal = system: A498 renal
A549 NSCLC = system: A549 NSCLC
ACHN renal = system: ACHN renal
BT-549 breast = system: BT-549 breast
CAKI-1 renal = system: CAKI-1 renal
CCRF-CEM leukemia = system: CCRF-CEM leukemia
COLO 205 colon = system: COLO 205 colon
DU-145 prostate = system: DU-145 prostate
EKVX NSCLC = system: EKVX NSCLC
HCT-116 colon = system: HCT-116 colon
HCT-15 colon = system: HCT-15 colon
HL-60(TB) leukemia = system: HL-60(TB) leukemia
HOP-62 NSCLC = system: HOP-62 NSCLC
HOP-92 NSCLC = system: HOP-92 NSCLC
HS 578T breast = system: HS 578T breast
HT29 colon = system: HT29 colon
IGROV1 ovarian = system: IGROV1 ovarian
K-562 leukemia = system: K-562 leukemia
KM12 colon = system: KM12 colon
LOX IMVI melanoma = system: LOX IMVI melanoma
M14 melanoma = system: M14 melanoma
MALME-3M melanoma = system: MALME-3M melanoma
MCF7 breast = system: MCF7 breast
MDA-MB-231 breast = system: MDA-MB-231 breast
MDA-MB-435 = system: MDA-MB-435
MDA-N = system: MDA-N
MOLT-4 leukemia = system: MOLT-4 leukemia
NCI-H226 lung = system: NCI-H226 lung
NCI-H23 lung = system: NCI-H23 lung
NCI-H460 lung = system: NCI-H460 lung
NCI-H522 lung = system: NCI-H522 lung
NCI/ADR-RES ovarian = system: NCI/ADR-RES ovarian
OVCAR-3 ovarian = system: OVCAR-3 ovarian
OVCAR-4 ovarian = system: OVCAR-4 ovarian
OVCAR-5 ovarian = system: OVCAR-5 ovarian
OVCAR-8 ovarian = system: OVCAR-8 ovarian
PC-3 prostate = system: PC-3 prostate
RPMI-8226 leukemia = system: RPMI-8226 leukemia
RXF 393 renal = system: RXF 393 renal
SF-268 CNS = system: SF-268 CNS
SF-295 CNS = system: SF-295 CNS
SF-539 CNS = system: SF-539 CNS
SK-MEL-2 melanoma = system: SK-MEL-2 melanoma
SK-MEL-28 melanoma = system: SK-MEL-28 melanoma
SK-MEL-5 melanoma = system: SK-MEL-5 melanoma
SK-OV-3 ovarian = system: SK-OV-3 ovarian
SN12C renal = system: SN12C renal
SNB-19 CNS = system: SNB-19 CNS
SR leukemia = system: SR leukemia
SW-620 colon = system: SW-620 colon
T-47D breast = system: T-47D breast
TK-10 renal = system: TK-10 renal
U251 CNS = system: U251 CNS
UACC-257 melanoma = system: UACC-257 melanoma
UACC-62 melanoma = system: UACC-62 melanoma
UO-31 renal = system: UO-31 renal
SNB-75 CNS = system: SNB-75 CNS

`O=C(O)c1ccc(CNCc2ccccc2)cc1` was tested, and the TGI (786-0 renal) was over 100 µM, the TGI (A498 renal) was over 100 µM and the TGI (A549 NSCLC) was over 100 µM. It also gave a TGI (ACHN renal) of over 100 µM, a TGI (BT-549 breast) of over 100 µM and a TGI (CAKI-1 renal) of over 100 µM. It also gave a TGI (CCRF-CEM leukemia) of over 100 µM, a TGI (COLO 205 colon) of over 100 µM and a TGI (DU-145 prostate) of over 100 µM. For the same molecule, the TGI (EKVX NSCLC) was over 100 µM, the TGI (HCT-116 colon) was over 100 µM and the TGI (HCT-15 colon) was over 100 µM. It also gave a TGI (HL-60(TB) leukemia) of over 100 µM, a TGI (HOP-62 NSCLC) of over 100 µM and a TGI (HOP-92 NSCLC) of over 100 µM. It also gave a TGI (HS 578T breast) of over 100 µM, a TGI (HT29 colon) of over 100 µM and a TGI (IGROV1 ovarian) of over 100 µM. For the same molecule, the TGI (K-562 leukemia) was over 100 µM, the TGI (KM12 colon) was over 100 µM and the TGI (LOX IMVI melanoma) was over 100 µM. For the same molecule, the TGI (M14 melanoma) was over 100 µM, the TGI (MALME-3M melanoma) was over 100 µM and the TGI (MCF7 breast) was over 100 µM. It also gave a TGI (MDA-MB-231 breast) of over 100 µM, a TGI (MDA-MB-435) of over 100 µM and a TGI (MDA-N) of over 100 µM. For the same molecule, the TGI (MOLT-4 leukemia) was over 100 µM, the TGI (NCI-H226 lung) was over 100 µM and the TGI (NCI-H23 lung) was over 100 µM. It also gave a TGI (NCI-H460 lung) of over 100 µM, a TGI (NCI-H522 lung) of over 100 µM and a TGI (NCI/ADR-RES ovarian) of over 100 µM. For the same molecule, the TGI (OVCAR-3 ovarian) was over 100 µM, the TGI (OVCAR-4 ovarian) was over 100 µM and the TGI (OVCAR-5 ovarian) was over 100 µM. For the same molecule, the TGI (OVCAR-8 ovarian) was over 100 µM, the TGI (PC-3 prostate) was over 100 µM and the TGI (RPMI-8226 leukemia) was over 100 µM. The TGI (RXF 393 renal) was over 100 µM, the TGI (SF-268 CNS) was over 100 µM and the TGI (SF-295 CNS) was over 100 µM. The TGI (SF-539 CNS) was over 100 µM, the TGI (SK-MEL-2 melanoma) was over 100 µM and the TGI (SK-MEL-28 melanoma) was over 100 µM. For the same molecule, the TGI (SK-MEL-5 melanoma) was over 100 µM, the TGI (SK-OV-3 ovarian) was over 100 µM and the TGI (SN12C renal) was over 100 µM. For the same molecule, the TGI (SNB-19 CNS) was over 100 µM, the TGI (SR leukemia) was over 100 µM and the TGI (SW-620 colon) was over 100 µM. The TGI (T-47D breast) was over 100 µM, the TGI (TK-10 renal) was over 100 µM and the TGI (U251 CNS) was over 100 µM. It also gave a TGI (UACC-257 melanoma) of over 100 µM, a TGI (UACC-62 melanoma) of over 100 µM and a TGI (UO-31 renal) of over 100 µM.

In the case of `COc1cccc2c1OC(c1cccc3ccccc13)C([N+](=O)[O-])=C2` (centres undefined), the TGI (786-0 renal) is reported as 3.95 µM, the TGI (A549 NSCLC) is reported as 3.75 µM and the TGI (ACHN renal) is reported as 3.02 µM. The TGI (BT-549 breast) was 2.74 µM, the TGI (CAKI-1 renal) was 5.02 µM and the TGI (CCRF-CEM leukemia) was 2.02 µM. The TGI (COLO 205 colon) was 5.72 µM, the TGI (DU-145 prostate) was 8.9 µM and the TGI (EKVX NSCLC) was 10.5 µM. The TGI (HCT-116 colon) was 2.45 µM, the TGI (HCT-15 colon) was 3.8 µM and the TGI (HL-60(TB) leukemia) was over 100 µM. The TGI (HOP-62 NSCLC) was 5.36 µM, the TGI (HS 578T breast) was 11 µM and the TGI (HT29 colon) was 4.5 µM. For the same molecule, the TGI (IGROV1 ovarian) was 7.5 µM, the TGI (K-562 leukemia) was 4.19 µM and the TGI (KM12 colon) was 3.05 µM. It also gave a TGI (M14 melanoma) of 2.77 µM, a TGI (MALME-3M melanoma) of 4.08 µM and a TGI (MCF7 breast) of 2.65 µM. The TGI (MDA-MB-231 breast) was 5.01 µM, the TGI (MDA-MB-435) was 3.02 µM and the TGI (MDA-N) was 10.3 µM. The TGI (MOLT-4 leukemia) was 5.71 µM, the TGI (NCI-H226 lung) was 4.32 µM and the TGI (NCI-H23 lung) was 4.29 µM. For the same molecule, the TGI (NCI-H460 lung) was 3.77 µM, the TGI (NCI-H522 lung) was 3.21 µM and the TGI (NCI/ADR-RES ovarian) was 7.29 µM. It also gave a TGI (OVCAR-3 ovarian) of 2.74 µM, a TGI (OVCAR-4 ovarian) of 13 µM and a TGI (OVCAR-5 ovarian) of 3.62 µM. For the same molecule, the TGI (OVCAR-8 ovarian) was 20.9 µM, the TGI (PC-3 prostate) was 2.37 µM and the TGI (RPMI-8226 leukemia) was over 100 µM. It also gave a TGI (RXF 393 renal) of 2.58 µM, a TGI (SF-268 CNS) of 13.3 µM and a TGI (SF-295 CNS) of 4.56 µM. It also gave a TGI (SK-MEL-28 melanoma) of 2.87 µM, a TGI (SK-MEL-5 melanoma) of 2.96 µM and a TGI (SK-OV-3 ovarian) of 9.89 µM. For the same molecule, the TGI (SN12C renal) was 11.2 µM, the TGI (SNB-19 CNS) was 3.01 µM and the TGI (SNB-75 CNS) was 2.65 µM. For the same molecule, the TGI (SR leukemia) was over 100 µM, the TGI (T-47D breast) was 5.69 µM and the TGI (TK-10 renal) was 5.77 µM. It also gave a TGI (U251 CNS) of 2.9 µM, a TGI (UACC-257 melanoma) of 4.42 µM and a TGI (UACC-62 melanoma) of 2.35 µM. The TGI (UO-31 renal) was 2.75 µM.
